The numbers were not newly measured in patent US20060257483A1, “Controlled release bupropion dosage forms” (ABRIKA Pharmaceuticals, priority 2005, published 2006), which cites them from elsewhere.

The conditions of the series: powder.

Counter-ions that a name gives are not always drawn.

For `CC(NC(C)(C)C)C(=O)c1cccc(Cl)c1` (stereo not shown) [bupropion hydrochloride], the solubility in water entry is reported as “highly soluble in water”.
